Our source for the EC50 values is ChEMBL document CHEMBL3886363, “Phenyl-tetrahydroisoquinoline derivatives” (2015).

Data set [1] concerns the target T1, Cytochrome P450 11B2, mitochondrial (Homo sapiens, UniProt P19099).
T1 sequence (P19099 whole entry): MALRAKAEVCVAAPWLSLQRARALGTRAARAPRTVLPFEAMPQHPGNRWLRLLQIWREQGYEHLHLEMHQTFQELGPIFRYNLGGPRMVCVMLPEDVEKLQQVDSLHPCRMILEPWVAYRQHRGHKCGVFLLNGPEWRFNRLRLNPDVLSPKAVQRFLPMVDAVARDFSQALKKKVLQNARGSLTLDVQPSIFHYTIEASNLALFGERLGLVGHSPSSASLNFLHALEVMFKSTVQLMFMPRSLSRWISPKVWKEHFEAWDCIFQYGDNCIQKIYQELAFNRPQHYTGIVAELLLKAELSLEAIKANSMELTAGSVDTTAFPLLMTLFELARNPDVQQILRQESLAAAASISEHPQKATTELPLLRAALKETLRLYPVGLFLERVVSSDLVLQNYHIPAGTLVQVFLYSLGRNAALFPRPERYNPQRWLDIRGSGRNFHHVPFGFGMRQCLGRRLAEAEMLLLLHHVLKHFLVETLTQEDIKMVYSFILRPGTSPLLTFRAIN
In words: (§1) Cellular Enzyme Assay: G-402 cells expressing CYP11 constructs were established as described above and maintained in McCoy's 5a Medium Modified, ATCC Catalog No. 30-2007 containing 10% FCS and 400 ug/ml G418 (Geneticin) at 37° C. under an atmosphere of 5% CO2/95% air. […] For assaying enzymatic activity, cells were plated onto 96 well plates and incubated for 16 h. An aliquot of the supernatant is then transferred and analyzed for the concentration of the expected product (Aldosterone for CYP11B2; Cortisol for CYP11B1). The concentrations of these steroids can be determined using HTRF assays from CisBio analyzing either Aldosterone or Cortisol. In general terms: TR-FRET usually uses a lanthanide donor and a delayed reading to cut background.

Data set [2] deals with T2, Cytochrome P450 11B1, mitochondrial (Homo sapiens, UniProt P15538).
T2 sequence (P15538 whole entry): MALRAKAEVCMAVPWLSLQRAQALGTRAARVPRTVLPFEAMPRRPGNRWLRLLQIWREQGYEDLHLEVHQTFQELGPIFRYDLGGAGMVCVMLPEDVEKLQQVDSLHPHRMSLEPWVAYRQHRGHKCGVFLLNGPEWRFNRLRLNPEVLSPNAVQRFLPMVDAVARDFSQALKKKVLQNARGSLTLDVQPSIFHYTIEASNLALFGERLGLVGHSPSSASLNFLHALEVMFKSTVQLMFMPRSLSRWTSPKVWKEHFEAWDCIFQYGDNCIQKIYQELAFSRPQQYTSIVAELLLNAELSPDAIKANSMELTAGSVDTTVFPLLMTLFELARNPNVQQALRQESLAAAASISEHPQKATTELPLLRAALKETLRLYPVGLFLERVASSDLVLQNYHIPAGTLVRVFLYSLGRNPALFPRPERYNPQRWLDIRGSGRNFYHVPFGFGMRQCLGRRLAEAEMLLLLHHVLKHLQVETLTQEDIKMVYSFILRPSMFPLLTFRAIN
Described as §1. It counts as cell-based.

The target of data set [3] is T1, Cytochrome P450 11B2, mitochondrial. The description is as §1. The format is cell-based.

Structures are written as SMILES. Several values for one entry are separate records, joined by “and”; a condition that tells them apart may be missing. Equal values may be shown once.

As for `CCC(=O)NC1CCc2c(-c3ccc(F)c(C)c3)cncc21` (single isomer, unassigned; form 1), the EC50 (as a rule, the concentration that produces a half-maximal response) in data set [1] came to 5.77 µM.
On the same count and under the same terms, the figure for `CC1(C)Cc2c(-c3ccc(C#N)cc3)cncc2C1O` (single isomer, unassigned) is 0.0022 µM and 0.0121 µM.
Consider `CC1(C)Cc2c(-c3ccc(C(F)(F)F)cc3)cncc2C1O` (single isomer, unassigned), for which the 50% effective concentration (EC50) in data set [2] is 2.7 µM and 1.64 µM; in data set [3], 0.0304 µM; in data set [1], 0.0152 µM.
As for `CC1(C)Cc2c(-c3ccc(C(F)(F)F)c(F)c3)cncc2C1O` (single isomer, unassigned), the EC50 in data set [2] was 0.304 µM and 0.791 µM; in data set [3], 0.0031 µM; in data set [1], 0.0303 µM.
